Measurements taken from US4000160A, “Pyrrolyl oxyphenyl ketones” (Sterling Drug Inc., priority 1975, dated 1976).
Converted amounts (≈) assume the structure as drawn. Where two headings read alike, the source gives them in different places.

Assays:
Type in all cases: cell-based
Ceratocystis ulmi [1] = experiment: agar growth test, percent inhibition of Ceratocystis ulmi; conditions: 120 h, read-out: % Inhibition, Agar Growth
Experimental: (§1) The test procedures, the agar growth and shake culture tests, used to determine this latter activity are described as follows: In the agar growth test a solution of 2 mg. of the test compound in 2 ml. of acetone was prepared and 0.2 ml. of this solution was added via sterile glass pipette to 20 ml. of molten (42° C.) sterile potato dextrose agar. Mixing was accomplished by repeated inversion of the tube. The mixture was poured into a sterile Petri dish, allowed to solidify at room temperature, and then was inoculated by placing in the center of the agar-chemical mixture a section (3 mm. diameter) of agar permeated with the mycelium of Ceratocystis ulmi. The inoculated dish was incubated at 25° C. for 5 days when the diameter of growth was measured and compared to the growth which had occurred in a control culture. The percent inhibition was calculated as: [formula] In the shake culture test, a 0.2 ml. aliquot of an acetone solution of the test compound (2 mg. in 2 ml.) was added to 20 ml. of sterile potato dextrose broth in a sterile 250 ml. Erlenmeyer flask. The flask was stoppered with a plug of sterile cotton, and the mixture was shaken for one hour on a New Brunswick "Gyrotatary" shake table. The mixture was inoculated by addition of a section (3 mm. diameter) of agar permeated with the mycelium of Ceratocystis ulmi and returned to the shake table where shaking was continued for five days at room temperature. The optical density of the mixture was measured, using an uninoculated sample of the broth as a blank, and compared with a control sample. The percent inhibition was calculated as: […]
(§2) Data obtained for the compounds of the invention in in vitro tests against fungal organism, Ceratocystis ulmi, in the agar growth and shake culture tests in comparison with the known antibiotic, pyoluteorin, at a standard dilution of 10 parts per million are given in terms of percent inhibition in the table below. The compounds are identified by reference to the example number above where their preparation is described.

Ceratocystis ulmi [2] = experiment: shake culture test, percent inhibition of Ceratocystis ulmi; conditions: 120 h, read-out: % Inhibition, Shake Culture
Experimental: as §1, §2

[3] = tested on: Staphylococcus aureus 209; experiment: in vitro antibacterial test (modified Autotiter method), minimum inhibitory concentration
Experimental: (§3) The antibacterial activity was determined using a modification of the Autotiter method described by Goss et al., Applied Microbiology, 16 (No. 9), 1414-1416 (1968) in which a 1000 mcg./ml. solution of the test compound is prepared. To the first cup of the Autotray is added 0.1 ml. of the test solution. Activation of the Autotiter initiates a sequence of operations by which 0.05 ml. of the test compound solution is withdrawn from this cup by a Microtiter transfer loop and diluted in 0.05 ml. of sterile semisynthetic medium (glucose). After this operation, 0.05 ml. of inoculated semisynthetic medium is added automatically to each cup. The overall operation results in final drug concentrations ranging from 500 to 0.06 mcg./ml. in twofold decrements. The Autotray is incubated for 18-20 hours at 37° C., at which time the trays are examined visually for growth as evidenced by turbidity, and the concentration of the last sample in the series showing no growth (or no turbidity) is recorded as the minimal inhibitory concentration (MIC). The compounds of formula I were thus found to be antibacterially effective against Staphylococcus aureus, Pseudomonas aeruginosa, Escherichia coli, and Proteus vulgaris at concentrations from 2 to 500 mcg./ml.
(§4) Data, expressed in terms of the minimum inhibitory concentration in mcg./ml., obtained in in vitro tests of the compounds of the invention in comparison with pyoluteorin against the bacterial organisms Staphylococcus aureus 209, Escherichia coli 198, Klebsiella pneumoniae 39645, Proteus vulgaris 9920, and Pseudomonas aeruginosa 211 (identified below as organisms A, B, C, D and E, respectively) are given in the table below.

Proteus vulgaris 9920 = experiment: as above
Experimental: as §3, §4

[4] = tested on: Pseudomonas aeruginosa 211; experiment: as above
Experimental: as §3, §4

[5] = tested on: Klebsiella pneumoniae 39645; experiment: as above; conditions: organism C
Experimental: as §3, §4

Escherichia coli 198 = experiment: as above
Experimental: as §3, §4

[6] = 10 parts per million, agar, 25° C., 5 days
[7] = 10 parts per million, broth, room temperature, five days
[8] = organism A, Staphylococcus aureus 209, in vitro, read-out: minimum inhibitory concentration (MIC)
[9] = organism D, Proteus vulgaris 9920, in vitro, read-out: minimum inhibitory concentration (MIC)
[10] = organism E, Pseudomonas aeruginosa 211, in vitro, read-out: minimum inhibitory concentration (MIC)
[11] = organism B, Escherichia coli 198, in vitro, read-out: minimum inhibitory concentration (MIC)

MIC [3, 8] [µg/mL] | MIC (Proteus vulgaris 9920; [9]) [µg/mL] | MIC [4, 10] [µg/mL] | MIC [5] [µg/mL] | MIC (Escherichia coli 198; [11]) [µg/mL] | Structure (SMILES) | inhibition of growth at 10 µg/mL (Ceratocystis ulmi [1]; [6]) [%] | inhibition of growth at 10 µg/mL (Ceratocystis ulmi [2]; [7]) [%] | inhibition of growth at 10 µg/mL (Ceratocystis ulmi [1]) [%] | inhibition of growth at 10 µg/mL (Ceratocystis ulmi [2]) [%] | MIC ([3]; Staphylococcus aureus, 209, read-out: minimum inhibitory concentration (MIC)) [µg/mL] | MIC (Proteus vulgaris 9920; Proteus vulgaris, 9920, read-out: minimum inhibitory concentration (MIC)) [µg/mL] | MIC ([4]; Pseudomonas aeruginosa, 211, read-out: minimum inhibitory concentration (MIC)) [µg/mL] | MIC (Escherichia coli 198; Escherichia coli, 198, read-out: minimum inhibitory concentration (MIC)) [µg/mL]
> 31.6 | 62.5 (≈ 231 µM) | > 250 | > 62.5 | 15.6 (≈ 57.8 µM) | COc1ccc(C(=O)c2cc(Cl)c(Cl)[nH]2)cc1 [Example 7, 4,5-dichloropyrrol-2-yl 4-methoxyphenyl ketone] | 32 | 61 | – | – | – | – | – | –
– | – | – | – | – | O=C(c1cc(Cl)c(Cl)[nH]1)c1c(O)cccc1O [Pyoluteorin, 4,5-dichloropyrrol-2-yl 2,6-dihydroxyphenyl ketone, reference compound] | – | – | 4 | 38 | 3.1 (≈ 11.4 µM) | 125 (≈ 459 µM) | 125 (≈ 459 µM) | 6.2 (≈ 22.8 µM)
62.5 (≈ 208 µM) | > 125 | > 125 | > 125 | > 125 | COc1ccc(C(=O)c2cc(Cl)c(Cl)[nH]2)c(OC)c1 [Example 1, 4,5-dichloropyrrol-2-yl 2,4-dimethoxyphenyl ketone] | 28 | 30 | – | – | – | – | – | –
> 125 | > 125 | > 125 | > 125 | > 125 | COc1ccc(C(=O)c2cc(Br)c(Br)[nH]2)cc1 [Example 6, 4,5-dibromopyrrol-2-yl 4-methoxyphenyl ketone] | 11 | 66 | – | – | – | – | – | –
> 125 | > 125 | > 125 | > 125 | > 125 | COc1ccc(OC)c(C(=O)c2cc(Cl)c(Cl)[nH]2)c1 [Example 4, 4,5-dichloropyrrol-2-yl 2,5-dimethoxyphenyl ketone] | 48 | 72 | – | – | – | – | – | –
15.6 (≈ 43.2 µM) | 62.5 (≈ 173 µM) | 125 (≈ 346 µM) | > 125 | 125 (≈ 346 µM) | O=C(c1cc(Br)c(Br)[nH]1)c1cc(O)ccc1O [Example 5, 4,5-dibromopyrrol-2-yl 2,5-dihydroxyphenyl ketone] | 28 | 83 | – | – | – | – | – | –
250 (≈ 696 µM) | 125 (≈ 348 µM) | > 125 | > 250 | 250 (≈ 696 µM) | COc1cccc(C(=O)c2cc(Br)c(Br)[nH]2)c1 [Example 8, 4,5-dibromopyrrol-2-yl 3-methoxyphenyl ketone] | 28 | 75 | – | – | – | – | – | –
31.3 (≈ 80.5 µM) | > 125 | > 125 | > 125 | > 125 | COc1ccc(OC)c(C(=O)c2cc(Br)c(Br)[nH]2)c1 [Example 2, 4,5-dibromopyrrol-2-yl 2,5-dimethoxyphenyl ketone] | 32 | 38 | – | – | – | – | – | –
> 125 | > 125 | > 125 | > 125 | > 125 | COc1ccc(C(=O)c2cc(Cl)c(Cl)[nH]2)cc1OC [Example 3, 4,5-dichloropyrrol-2-yl 3,4-dimethoxyphenyl ketone] | 25 | 75 | – | – | – | – | – | –
0.98 (≈ 3.6 µM) | 62.5 (≈ 230 µM) | 125 (≈ 459 µM) | 125 (≈ 459 µM) | 125 (≈ 459 µM) | O=C(c1cc(Cl)c(Cl)[nH]1)c1cc(O)ccc1O [Example 10, 4,5-dichloropyrrol-2-yl 2,5-dihydroxyphenyl ketone] | 21 | 64 | – | – | – | – | – | –
3.9 (≈ 14.3 µM) | > 125 | > 125 | > 125 | 31.3 (≈ 115 µM) | O=C(c1cc(Cl)c(Cl)[nH]1)c1ccc(O)cc1O [Example 9, 4,5-dichloropyrrol-2-yl 2,4-dihydroxyphenyl ketone] | 55 | 72 | – | – | – | – | – | –
